Tested on: NL-RLuc virus
Test: Inhibition of HIV replication: NL-RLuc reporter virus in MT-2 cells, luciferase readout
Assay type: cell-based
Conditions: MT-2 cells infected with NL-RLuc virus, 5 days of incubation, 10% FBS, at least 2 experiments
From the text: Inhibition of HIV Replication:
A recombinant NL-RLuc proviral clone was constructed in which a section of the nef gene from NL4-3 was replaced with the Renilla Luciferase gene. This virus is fully infectious and can undergo multiple cycles of replication in cell culture. In addition, the luciferous reporter provides a simple and easy method for quantitating the extent of virus growth and consequently, the antiviral activity of test compounds. The plasmid pNLRLuc contains the proviral NL-Rluc DNA cloned into pUC 18 at the PvuII site. The NL-RLuc virus was prepared by transfection of 293T cells with the plasmid pNLRLuc. Transfections were performed using the LipofectAMINE PLUS kit from Invitrogen (Carlsbad, Calif.) according to the manufacturer and the virus generated was titered in MT-2 cells. For susceptibility analyses, the titrated virus was used to infect MT-2 cells in the presence of compound, and after 5 days of incubation, cells were processed and quantitated for virus growth by the amount of expressed luciferase. Assay media was RPMI 1640 supplemented with 10% heat inactivated fetal bovine serum (FBS), 100 units/ml penicillin G/100 units/ml streptomycin, 10 mM HEPES buffer pH 7.55 and 2 mM L-glutamine. The results from at least 2 experiments were used to calculate the EC50 values. Luciferase was quantitated using the Dual Luciferase kit from Promega (Madison, Wis.). Susceptibility of viruses to compounds was determined by incubation in the presence of serial dilutions of the compound. The 50% effective concentration (EC50) was calculated by using the exponential form of the median effect equation where (Fa)=1/[1+(ED50/drug conc.)^m](Johnson V A, Byington R T. Infectivity Assay. In Techniques in HIV Research. ed. Aldovini A, Walker B D. 71-76. New York: Stockton Press. 1990).

[1] = Human immunodeficiency virus 1, MT2, 120 h

SMILES | EC50 [1] [nM] | EC50 [nM]
Cc1c([C@H](OC(C)(C)C)C(=O)O)c2n3cc(nc3c1C)-c1cccc(c1)-c1cc(F)c(F)cc1O[C@@H](C)CCCCOC1(C)CCN2CC1 [Example 41, (2S)-2-(tert-Butoxy)-2-[(22S)-17,18-difluoro-4,5,22,28-tetramethyl-21,27-dioxa-1,7,34-triazahexacyclo[26.2.2.1^6,^9.1^10,^14.0^2,^7.0^15,^20]tetratriaconta-2,4,6(34),8,10(33),11,13,15(20),16,18-decaen-3-yl]acetic acid] | 13 | 
Cc1cc2c(cc1F)-c1cccc(c1)-c1cn3c(c([C@H](OC(C)(C)C)C(=O)O)c(C)c(NS(C)(=O)=O)c3n1)N1CCC(C)(CC1)OCCCC[C@H](C)O2 [Example 31, (2S)-2-(tert-Butoxy)-2-[(22S)-17-fluoro-5-methanesulfonamido-4,18,22,28-tetramethyl-21,27-dioxa-1,7,34-triazahexacyclo[26.2.2.1^6,^9.1^10,^14.0^2,^7.0^15,^20]tetratriaconta-2,4,6(34),8,10(33),11,13,15(20),16,18-decaen-3-yl]acetic acid] | 19 | 
C=C(C)c1c(C)c([C@H](OC(C)(C)C)C(=O)O)c2n3cc(nc13)-c1cccc(c1)-c1cc(F)ccc1O[C@@H](C)CCCCOC1(C)CCN2CC1 [Example 48, (2S)-2-(tert-Butoxy)-2-[(22S)-17-fluoro-4,22,28-trimethyl-5-(prop-1-en-2-yl)-21,27-dioxa-1,7,34-triazahexacyclo[26.2.2.1^6,^9.1^10,^14.0^2,^7.0^15,^20]tetratriaconta-2,4,6(34),8,10(33),11,13,15(20),16,18-decaen-3-yl]acetic acid] | 24 | 
Cc1ccc2c(c1)-c1cccc(c1)-c1nc3cc(C)c([C@H](OC(C)(C)C)C(=O)O)c(n3c1Cl)N1CCC(C)(CC1)OCCCC[C@H](C)O2 [Example 22, (2S)-2-(tert-Butoxy)-2-[(22S)-8-chloro-4,17,22,28-tetramethyl-21,27-dioxa-1,7,34-triazahexacyclo[26.2.2.1^6,^9.1^10,^14.0^2,^7.0^15,^20]tetratriaconta-2,4,6(34),8,10(33),11,13,15(20),16,18-decaen-3-yl]acetic acid] | 24 | 
Cc1c([C@H](OC(C)(C)C)C(=O)O)c2n3cc(nc3c1C)-c1cccc(c1)-c1cc(F)ccc1O[C@@H](C)CCCCOC1(C)CCN2CC1 [Example 33, (2S)-2-(tert-Butoxy)-2-[(22S)-17-fluoro-4,5,22,28-tetramethyl-21,27-dioxa-1,7,34-triazahexacyclo[26.2.2.1^6,^9.1^10,^14.0^2,^7.0^15,^20]tetratriaconta-2,4,6(34),8,10(33),11,13,15(20),16,18-decaen-3-yl]acetic acid] | 25 | 
Cc1cc2nc3c(Cl)n2c(c1[C@H](OC(C)(C)C)C(=O)O)N1CCC(C)(CC1)OCCCC[C@H](C)Oc1cc(F)c(F)cc1-c1cccc-3c1 [Example 23, (2S)-2-(tert-Butoxy)-2-[(22S)-8-chloro-17,18-difluoro-4,22,28-trimethyl-21,27-dioxa-1,7,34-triazahexacyclo[26.2.2.1^6,^9.1^10,^14.0^2,^7.0^15,^20]tetratriaconta-2,4,6(34),8,10(33),11,13,15(20),16,18-decaen-3-yl]acetic acid] | 19 | 
Cc1cc2nc3cn2c(c1[C@H](OC(C)(C)C)C(=O)O)N1CCC(C)(CC1)OCCCCCOc1ccc(F)cc1CNC3=O [Example 3, (2S)-2-(tert-Butoxy)-2-{15-fluoro-4,26-dimethyl-10-oxo-19,25-dioxa-1,7,11,31-tetraazapentacyclo[24.2.2.1^6,^9.0^2,^7.0^13,^18]hentriaconta-2,4,6(31),8,13(18),14,16-heptaen-3-yl}acetic acid] | 27 | 
Cc1c([C@H](OC(C)(C)C)C(=O)O)c2n3cc(nc3c1-c1ccncc1)-c1cccc(c1)-c1cc(F)ccc1O[C@@H](C)CCCCOC1(C)CCN2CC1 [Example 39, (2S)-2-(tert-Butoxy)-2-[(22S)-17-fluoro-4,22,28-trimethyl-5-(pyridin-4-yl)-21,27-dioxa-1,7,34-triazahexacyclo[26.2.2.1^6,^9.1^10,^14.0^2,^7.0^15,^20]tetratriaconta-2,4,6(34),8,10(33),11,13,15(20),16,18-decaen-3-yl]acetic acid] | 12 | 
Cc1ccc2c(c1)-c1cccc(c1)-c1cn3c(c([C@H](OC(C)(C)C)C(=O)O)c(C)cc3n1)N1CCC(C)(CC1)OC/C=C/C[C@H](C)O2 [Example 9, (2S)-2-(tert-Butoxy)-2-[(22S)-4,17,22,28-tetramethyl-21,27-dioxa-1,7,34-triazahexacyclo[26.2.2.1^6,^9.1^10,^14.0^2,^7.0^15,^20]tetratriaconta-2,4,6(34),8,10(33),11,13,15(20),16,18,24-undecaen-3-yl]acetic acid] | 9 | 
Cc1cc2nc3cn2c(c1[C@H](OC(C)(C)C)C(=O)O)N1CCC(C)(CC1)OC/C=C/C[C@H](C)Oc1cc(F)c(F)cc1-c1cccc-3c1 [Example 11, (2S)-2-(tert-Butoxy)-2-[(22S)-17,18-difluoro-4,22,28-trimethyl-21,27-dioxa-1,7,34-triazahexacyclo[26.2.2.1^6,^9.1^10,^14.0^2,^7.0^15,^20]tetratriaconta-2,4,6(34),8,10(33),11,13,15(20),16,18,24-undecaen-3-yl]acetic acid] | 12 | 
Cc1c([C@H](OC(C)(C)C)C(=O)O)c2n3cc(nc3c1C(C)O)-c1cccc(c1)-c1c(ccc(F)c1F)O[C@@H](C)CCCCOC1(C)CCN2CC1 (stereo partly drawn) [Example 49, (2S)-2-(tert-Butoxy)-2-[(22S)-16,17-difluoro-5-(1-hydroxyethyl)-4,22,28-trimethyl-21,27-dioxa-1,7,34-triazahexacyclo[26.2.2.1^6,^9.1^10,^14.0^2,^7.0^15,^20]tetratriaconta-2,4,6(34),8,10(33),11,13,15(20),16,18-decaen-3-yl]acetic acid] |  | 2
Cc1cc2nc3cn2c(c1[C@H](OC(C)(C)C)C(=O)O)N1CCC(C)(CC1)OC/C=C\C[C@H](C)Oc1cc(F)c(F)cc1-c1cccc-3c1 [Example 12, (2S)-2-(tert-Butoxy)-2-[(22S)-17,18-difluoro-4,22,28-trimethyl-21,27-dioxa-1,7,34-triazahexacyclo[26.2.2.1^6,^9.1^10,^14.0^2,^7.0^15,^20]tetratriaconta-2,4,6(34),8,10(33),11,13,15(20),16,18,24-undecaen-3-yl]acetic acid] | 3 | 
Cc1c([C@H](OC(C)(C)C)C(=O)O)c2n3cc(nc3c1C(C)O)-c1cccc(c1)-c1c(ccc(F)c1F)O[C@@H](C)CCCCOC1(C)CCN2CC1 (stereo partly drawn) [Example 50, (2S)-2-(tert-Butoxy)-2-[(22S)-16,17-difluoro-5-(1-hydroxyethyl)-4,22,28-trimethyl-21,27-dioxa-1,7,34-triazahexacyclo[26.2.2.1^6,^9.1^10,^14.0^2,^7.0^15,^20]tetratriaconta-2,4,6(34),8,10(33),11,13,15(20),16,18-decaen-3-yl]acetic acid] |  | 10
Cc1cc2c(cc1F)-c1cccc(c1)-c1nc3cc(C)c([C@H](OC(C)(C)C)C(=O)O)c(n3c1Br)N1CCC(C)(CC1)OCCCC[C@H](C)O2 [Example 28, (2S)-2-[(22S)-8-Bromo-17-fluoro-4,18,22,28-tetramethyl-21,27-dioxa-1,7,34-triazahexacyclo[26.2.2.1^6,^9.1^10,^14.0^2,^7.0^15,^20]tetratriaconta-2,4,6(34),8,10(33),11,13,15(20),16,18-decaen-3-yl]-2-(tert-butoxy)acetic acid] |  | 8
Cc1cc2nc3cn2c(c1[C@H](OC(C)(C)C)C(=O)O)N1CCC(C)(CC1)OCCCC[C@H](C)Oc1ccc(F)cc1-c1cccc-3c1 [Example 10, (2S)-2-(tert-Butoxy)-2-[(22S)-17-fluoro-4,22,28-trimethyl-21,27-dioxa-1,7,34-triazahexacyclo[26.2.2.1^6,^9.1^10,^14.0^2,^7.0^15,^20]tetratriaconta-2,4,6(34),8,10(33),11,13,15(20),16,18-decaen-3-yl]acetic acid] | 4 | 
Cc1c([C@H](OC(C)(C)C)C(=O)O)c2n3cc(nc3c1C)-c1cccc(c1)-c1c(F)cc(F)cc1O[C@@H](C)CCCCOC1(C)CCN2CC1 [Example 44, (2S)-2-(tert-butoxy)-2-[(22S)-16,18-difluoro-4,5,22,28-tetramethyl-21,27-dioxa-1,7,34-triazahexacyclo[26.2.2.1^6,^9.1^10,^14.0^2,^7.0^15,^20]tetratriaconta-2,4,6(34),8,10(33),11,13,15(20),16,18-decaen-3-yl]acetic acid] |  | 331
Cc1cc2c(cc1C)-c1cccc(c1)-c1cn3c(c([C@H](OC(C)(C)C)C(=O)O)c(C)cc3n1)N1CCC(C)(CC1)OCC=CC[C@H](C)O2 [Example 17, (2S)-2-(tert-Butoxy)-2-[(22S)-4,17,18,22,28-pentamethyl-21,27-dioxa-1,7,34-triazahexacyclo[26.2.2.1^6,^9.1^10,^14.0^2,^7.0^15,^20]tetratriaconta-2,4,6(34),8,10(33),11,13,15(20),16,18,24-undecaen-3-yl]acetic acid] | 6 | 

— patent US9409922B2, “Imidazopyridine macrocycles as inhibitors of human immunodeficiency virus replication” (priority 2014, dated 2016)
